Type in all cases: in vivo, mouse
Test [1] relates to HepG2 xenograft model. In words: HepG2 xenograft model, FGFR1-ECD.339-Fc alone and with sorafenib.
Experimental: FGFR1-ECD.339-Fc as a single agent, and in combination with sorafenib, was also tested in a HepG2 xenograft model.
In test [2] the test system is SK-Hep-1 xenograft model. In words: SK-Hep-1 xenograft model, FGFR1-ECD.339-Fc alone and with sorafenib. Particulars: 61 days, FGFR1-ECD.339-Fc 15 mg/kg IP twice per week (p=0.0036), sorafenib 20 mg/kg oral five times per week (p<0.0001). The protocol: (§1) The cells were implanted subcutaneously over the right flank of the mice at 5×10^6 cells/100 μl/mouse.
The subject of another test is HLF xenograft model. In words: HLF xenograft model, FGFR1-ECD.339-Fc alone and with sorafenib. As to conditions: 24 days, FGFR1-ECD.339-Fc 15 mg/kg IP twice per week (p=0.0175), sorafenib 20 mg/kg oral five times per week (p=0.0020).
A further test has as its system 786-0 xenograft model. In words: 786-0 xenograft model, FGFR1-ECD.339-Fc alone and with pazopanib. As to conditions: FGFR1-ECD.339-Fc 15 mg/kg IP twice per week, pazopanib 100 mg/kg oral daily. The protocol:
as §1

Test [3] deals with NCI-H226 (mesothelioma) xenograft. In words: Blood vessel density by MECA-32 IHC in NCI-H226 xenograft tumors. Particulars: NCI-H226 tumors harvested day 30; 1.024, 5.12 or 25.6 mg/kg t.i.w. for 29 days. The protocol: Endothelial cell immunohistochemical (IHC) staining using a rat anti-mouse pan-endothelial cell antigen antibody (MECA-32; BD Biosciences, Franklin Lakes, N.J.) was performed on tumors from a NCI-H226 (mesothelioma) xenograft study. Tumor-bearing mice were treated with either vehicle (0.9% saline) or increasing doses of FGFR1-ECD.339-Fc (1.024, 5.12, or 25.6 mg/kg) three times a week (t.i.w.) for 29 days, as described above. Tumors were harvested on day 30. Quantification of MECA-32 IHC staining was analyzed by measuring the number of blood vessels/tissue area.

For a further test, the system named is ACHN xenograft model. Briefly: ACHN xenograft model, FGFR1-ECD.339-Fc alone and with pazopanib. As for the experimental part:
as §1

In a further test the test system is NCI-H226 xenograft. In words: NCI-H226 mesothelioma tumor xenograft model, dose response. As to conditions: SCID mice, day 29. The protocol:
Seven week old female SCID mice (Taconic, Hudson, N.Y.) were implanted subcutaneously with NCI-H226 cells (ATCC, Manassas, Va.) at 5×10^6 cells/mouse and tumor-bearing mice were randomized into 4 groups (n=8/group) when tumors reached ˜176-277 mm^3 in size. Mice were treated with FGFR1-ECD.339-Fc at three different concentrations (1.024, 5.12 or 25.6 mg/kg) three times a week (t.i.w.) for 29 days. Tumor size and body weights were measured twice a week.

Test [4] relates to HepG2 xenograft model. Briefly: HepG2 xenograft model, FGFR1-ECD.339-Fc single agent. Particulars: 15 mg/kg IP twice per week. As for the experimental part:
(§2) Six week old female CB17 SCID mice were purchased from Charles River Laboratories (Wilmington, Mass.) and were acclimated for 1 week before the start of the study. Human hepatocellular carcinoma (HCC) cell lines HepG2 and Hep3B were purchased from ATCC (Manassas, Va.) and Huh7 was purchased from JCRB (Japanese Collection of Research Bioresources). The cells were cultured for three passages in complete growth medium to expand for implantation. HepG2 and Hep3B cells were cultured in Dulbecco's Modified Eagle Medium (DMEM) supplemented with 10% Fetal Bovine Serum (FBS), 2 mM L-Glutamine, and Penicillin-Streptomycin antibiotic solution. […]
(§3) When the cultured cells reached 85-90% confluence, cells were harvested and resuspended in cold Ca^2+ and Mg^2+ free phosphate buffered saline (PBS) containing 50% Matrigel. […] Mice were monitored twice weekly following cell implantation for tumor growth.
(§4) FGFR1-ECD.339-Fc (FP-1039) or albumin as a negative control was dosed at 15 mg/kg via intraperitoneal injection twice per week. […] Upon initiation of therapy, tumor sizes were measured in each mouse twice weekly. The length and width of each tumor was measured using calipers and the tumor size calculated according to the formula Tumor size (mm^3)=[…]. […]
(§5) Comparisons of tumor volume as a consequence of treatment with FP-1039 were determined to be statistically significant if P<0.05. […]

Another test deals with Hep3B xenograft model. In words: Hep3B xenograft model, FGFR1-ECD.339-Fc single agent. As to conditions: 15 mg/kg IP twice per week. As for the experimental part: as §2, §3, §4, §5
A further test has as its system MSTO-211H xenograft. In words: MSTO-211H mesothelioma tumor xenograft model, dose response. Particulars: SCID mice, day 29. The protocol:
Five to six week old female SCID mice were implanted subcutaneously with MSTO-211H cells (ATCC, Manassas, Va.) at 5×10^6 cells/mouse and tumor-bearing mice were randomized into 3 groups (n=10/group) when tumors reached ˜150-225 mm^3 in size. Mice were treated with FGFR1-ECD.339-Fc at two different concentrations (5.12 or 25.6 mg/kg) three times a week (t.i.w.) for 29 days. Tumor size and body weights were measured twice a week.

A further test deals with A498 xenograft model. Briefly: A498 xenograft model, FGFR1-ECD.339-Fc alone and with pazopanib. Particulars: FGFR1-ECD.339-Fc 15 mg/kg IP twice per week, pazopanib 100 mg/kg oral daily. As for the experimental part: as §1
A further test relates to Caki-2 xenograft model. In words: Caki-2 xenograft model, FGFR1-ECD.339-Fc alone and with pazopanib. Particulars: FGFR1-ECD.339-Fc 15 mg/kg IP twice per week, pazopanib 100 mg/kg oral daily. As for the experimental part: as §1
The test system of test [5] is SK-Hep-1 xenograft model. Briefly: SK-Hep-1 xenograft model, FGFR1-ECD.339-Fc alone and with pazopanib. As to conditions: 15 mg/kg IP twice per week, p=0.0076. As for the experimental part:
as §1

For the next test, the system named is Huh7 xenograft model. In words: Huh7 xenograft model, FGFR1-ECD.339-Fc single agent. Particulars: 15 mg/kg IP twice per week. The protocol:
as §2, §3, §4, §5

Experimental for HLF xenograft model: Six week old female CB17 SCID mice were purchased from Charles River Laboratories (Wilmington, Mass.) and were acclimated for 1 week before the start of the study. […] The cells were cultured for three passages in complete growth medium to expand for implantation. HLF cells were cultured in Dulbecco's Modified Eagle Medium (DMEM) supplemented with 10% Fetal Bovine Serum (FBS) and Antibiotic-Antimycotic solution. Cells were grown at 37° C. in a humidified atmosphere with 5% CO2.
The cells were implanted subcutaneously over the right flank of the mice at 2.5×10^6 cells/100 μl/mouse. Mice were monitored twice weekly following cell implantation for tumor growth. […]
FGFR1-ECD.339-Fc or albumin as a negative control, was dosed at 15 mg/kg via intraperitoneal (IP) injection twice per week. […] Upon initiation of therapy, tumor sizes were measured in each mouse twice weekly. The length and width of each tumor was measured using calipers and the tumor size calculated according to the formula above. […]
Comparisons of tumor volume as a consequence of treatment with FGFR1-ECD.339-Fc and/or sorafenib were determined to be statistically significant if P<0.05. P-values were calculated using unpaired, two-tailed t-test analyses of the calculated tumor volumes on day 24 following initiation of treatment.

With `CNC(=O)c1cc(Oc2ccc(NC(=O)Nc3ccc(Cl)c(C(F)(F)F)c3)cc2)ccn1` [sorafenib, reference compound], in the test with HepG2 xenograft model [1], the “single agent effect on tumor growth” value is on record as “inhibits tumor growth”. Besides, the “response of xenograft model to single therapy (tumor volume)” value (from here on “response of xenograft model”) in the test on SK-Hep-1 xenograft model [2] and in the test on HLF xenograft model was “responded” each time.
Turning to “FGFR1-ECD.339-Fc: human FGFR1 extracellular domain ending at amino acid 339 fused to Fc; SEQ ID NO: 6 (mature form) or SEQ ID NO: 5 (with signal peptide)”, the “response of xenograft model” value was “did not respond” in the test with 786-0 xenograft model; “responded” in the test with ACHN xenograft model (FGFR1-ECD.339-Fc 15 mg/kg IP twice per week); “little response” in the test on A498 xenograft model; “responded” in the test with SK-Hep-1 xenograft model [2]; “responded” in the test on HLF xenograft model; “little response” in the test with Caki-2 xenograft model. The “response of xenograft model” value in the test on SK-Hep-1 xenograft model [5] is “responded”. Also, the “blood vessel density (MECA-32 IHC), inner region” value in test [3] is reported as “no significant differences”. In addition, the “blood vessel density (MECA-32 IHC), outer region” value in test [3] is “dose-dependent and a statistically-significant reduction”. The “blood vessel density (MECA-32 IHC), outer+inner region (whole tumor mass)” value in test [3] was “dose-dependent and a statistically-significant reduction”. The same compound came in with a tumor growth inhibition in the test on ACHN xenograft model (CB17 SCID mice, 15 mg/kg IP twice per week, day 63, p<0.0001) of 51%. For the same compound, the “tumor growth inhibition (TGI)” value in the test on NCI-H226 xenograft (1.024 mg/kg three times a week) was 16.2%; in the test with NCI-H226 xenograft (5.12 mg/kg three times a week) it was 56.8%; in the test on NCI-H226 xenograft (25.6 mg/kg three times a week) it was 77.8%; with MSTO-211H xenograft (5.12 mg/kg three times a week), 20.3%; in the test with MSTO-211H xenograft (25.6 mg/kg three times a week), 50.1%. The “single agent efficacy (tumor volume)” value with HepG2 xenograft model [4], in the test with Hep3B xenograft model and in the test with Huh7 xenograft model was “no single agent efficacy” throughout. In addition, the “single agent effect on tumor growth” value in the test on HepG2 xenograft model [1] is listed as “not effective as a single agent”.

The values above are taken from patent publication US9775881B2, “Methods of treating mesothelioma by administration of compounds comprising FGFR1 ECD” (Five Prime Therapeutics, Inc., priority 2013, dated 2017).
